One assay deals with nitric oxide (NO). The assay can be described thus: Inhibition of NO production (nitrite, Griess reagent) in LPS-stimulated Raw 264.7 macrophage cells. It is filed as cell-based, murine. The conditions noted are these: for NO: 1 μg/ml LPS, 24 hours. The procedure:
To investigate whether kaurane diterpene compounds obtained in Example 1 can inhibit the production of nitric oxide (NO) which induces apoptosis of the immune and neuron cells, the present inventors measured the amount of nitrite (NO2) accumulated in the culture medium of LPS-stimulated murine macrophage cells, which were treated with four kaurane diterpene compounds, kamebanin, kamebacetal A, kamebakaurin, or exisanin A.
In detail, Raw 264.7 murine macrophage cells (ATCC TIB-71) in DMEM medium were seeded to 96-well plate at a cell density of 1×10^5 cells/well and incubated for 3 hours at 37° C., 5% CO2 incubator. To induce NO synthesis in the macrophage cell, 1 μg/ml of LPS and 3 μg/ml, 0.3 μg/ml, and 0.03 μg/ml of kaurane diterpene compounds of the present invention were added to the medium and the plate was incubated for 24 hours. The amount of NO2, the final oxidation product of NO induced by the LPS in the medium was measured as followed. After collecting and centrifuging incubated medium, 100 μl of Griess reagent was added into 100 μl of each culture medium. Then, the medium was incubated for ten minutes at room temperature and absorbance at 550 nm wavelength was measured. Griess reagent was prepared by mixing a solution, wherein 1% sulfanilamide was dissolved in 5% phosphoric acid, and a solution of 0.1% naphyhylethylenediamine-HCl by a 1:1 ratio. To measure the amount of standard NO synthesis, NaNO2 was serially diluted and the absorbance was measured after reacting it with Griess reagent. From this, the standard curve for the amount of NO production was obtained. The amount of NO production in the culture medium treated with each compound was estimated using standard curve for NO determination.

A further assay deals with prostaglandin E2. The assay can be described thus: Inhibition of prostaglandin E2 production in LPS-stimulated Raw 264.7 cells (enzyme immunometric assay). The class given is cell-based, murine. The conditions noted are these: for PGE2: 1 μg/ml LPS, 16 hours. The procedure: To investigate whether kaurane diterpene compounds obtained in Example 1 can inhibit the production of prostaglandin, which induces inflammatory reaction, the present inventors measured the amount of prostaglandin E2 accumulated in the culture medium of LPS-stimulated murine macrophage cells, which were treated with four kaurane diterpene compounds, kamebanin, kamebacetal A, kamebakaurin, or exisanin A.
In detail, Raw 264.7 cells in DMEM medium were seeded to a 96-well plate at a cell density of 1×10^5 cells/well and were incubated for 18 hours. Cyclooxygenase-1, the constitutive rate-determining enzyme of the prostaglandin synthesis was inactivated by incubating for 3 hrs with 500 μM of aspirin and each well was washed two times with PBS (phosphate-buffered saline). To each well were added 1 μg/ml of LPS and 3 μg/ml, 0.3 μg/ml, and 0.03 μg/ml concentrations of kaurane diterpene compounds of the present invention and was incubated for 16 hours. After collecting supernatant by centrifugation, the amount of prostaglandin in the culture medium was quantified by enzyme immunometric assay.

The next assay deals with NF-κB. The assay can be described thus: NF-κB activation, SEAP reporter in LPS-stimulated RAW-NF-AP cells. It is filed as cell-based, murine. The conditions noted are these: Mus musculus. The procedure: RAW-NF-AP cells, which can be used effectively to detect the NF-κB dependent expression of reporter gene, (Korean Patent Application No. 1999-0006025), were seeded to a 96-well plate at a cell density of 1×10^5 cell/well and were incubated for 3 hours at 37° C. in a 5% CO2 incubator. Thereafter, 1 μg/ml concentration of LPS and 0.03 μg/ml, 0.3 μg/ml, and 3 μg/ml concentrations of kaurane diterpene compounds of the present invention were added to each well and was incubated for 16 hours. After collecting supernatant by centrifugation, the amount of secreted alkaline phosphatase (SEAP) in the culture medium of which expression is regulated by the activation of NF-κB was quantified.

A further assay has as its system Bf1-1/A1 mRNA. The assay can be described thus: TNF-α-induced Bf1-1/A1 mRNA expression, Northern blot, MCF-7 and HT-1080 cells. The class given is cell-based. The conditions noted are these: 1, 5, 10 μg/ml, 20 ng/ml TNF-α 3 hours. The procedure:
MCF-7 cells (ATCC HTB 22, breast cancer cell line) and HT-1080 cells (ATCC CCL 121, fibroblastoma) were pretreated for 30 minutes with 1 μg/ml, 5 μg/ml, and 10 μg/ml concentrations of four kinds of kaurane diterpene compounds. Thereafter, 20 ng/ml concentrations of TNF-α were treated for three hours to induce the expression of Bf1-1/A1 mRNA. After isolating total RNA from the control and compound-treated cells, the expression of Bf1-1/A1 mRNA was measured by Northern blot analysis. To accomplish this, 20 μg of the total RNA was electrophoresed in the 1% agarose gel containing 2.2M concentrations of formaldehyde. After that, RNA was transferred to nylon membrane and fixed using ultraviolet. The nylon membrane was hybridized with ^32P-labeled probe, which was represented by SEQ. ID NO. 2 and specific to the cDNA of Bf1-1/A1 gene. After washing unbound probe with phosphate buffered saline (PBS) containing sodium dodecyl sulfate (SDS), the membrane was exposed to x-ray film.

For a further assay, the system named is cIAP-2. The assay can be described thus: TNF-α-induced cIAP-2 protein expression, Western blot, MCF-7 and HT-1080 cells. It is filed as cell-based. The following applies: 1, 5, 10 μg/ml, 20 ng/ml TNF-α 3 hours. The procedure:
(§1) MCF-7 cells and HT-1080 cells were pretreated for 30 minutes with 1 μg/ml, 5 μg/ml, and 10 μg/ml concentrations of four kinds of kaurane diterpene compounds, respectively. After that, 20 ng/ml concentrations of TNF-α were treated for three hours to induce the expression of cIAP-1 and cIAP-2 proteins. Protein extract was prepared from cultured cells using buffer solution for protein extraction consisting of 50 mM Tris-HCL (pH 7.5), 1% Nonidet P40, 150 mM NaCl, 1 mM EDTA, 1 mM phenylmethyl sulfonyl fluoride, […]. 50 μg of protein extract of the control and compound-treated groups was applied to the SDS-polyacrylamide gel electrophoresis. After transferring the proteins into the polyvinylidene difluoride membrane, the membrane was blocked with 5% skim milk for three hours, and were reacted with antibodies against cIAP-1, cIAP-2, Bcl-2, and Bax proteins (Santa Cruz Biochemicals). The membrane was washed with PBS and was reacted with secondary antibody conjugated with horseradish peroxidase. After washing again with PBS, the protein was detected by ECL system (Amersham Pharmacia Biotec).
A general note: Immunoblotting shows a protein as a band on a membrane.

In the next assay the test system is Bcl-2. The assay can be described thus: Bcl-2 expression, Western blot, MCF-7 and HT-1080 cells. The class given is cell-based. The conditions noted are these: 1, 5, 10 μg/ml, 20 ng/ml TNF-α 3 hours. The procedure:
as §1

For a further assay, the system named is Bax. The assay can be described thus: Bax expression, Western blot, MCF-7 and HT-1080 cells. It is filed as cell-based. The following applies: 1, 5, 10 μg/ml, 20 ng/ml TNF-α 3 hours. The procedure: as §1
[1] abbreviates: Mus musculus, RAW264.7, LPS-stimulated Raw 264.7 cells.

The values that follow come from US6894073B2, “Use of diterpene compound as a therapeutic agent of inflammation, immune disease or cancer” (Korea Research Institute of Bioscience and Biotechnology, priority 2000, dated 2005).

With `C=C1C(=O)[C@@]23[C@H](O)C[C@@H]4C(C)(C)CC[C@H](O)[C@@]4(CO)[C@@H]2CC[C@@H]1[C@H]3O` [Kamebakaurin, kamebakaurin], the “NO” value is 29.1 ± 4.2 µM in the assay with nitric oxide (NO) (0.03 μg/ml compound), 16.1 ± 2.8 µM in the assay on nitric oxide (NO) (0.3 μg/ml compound) and 3.6 ± 0.7 µM with nitric oxide (NO) (3 μg/ml compound). Moreover, the inhibition at 0.03 µg/mL is 44.2% in the assay on nitric oxide (NO) (Mus musculus, RAW264.7, 0.03 μg/ml compound, read-out: Inhibition rate (%) of NO production); -7.1% with prostaglandin E2 (Mus musculus, RAW264.7, 0.03 μg/ml compound, read-out: Inhibition rate (%) of prostaglandin E2 production); 2.5% in the assay with NF-κB (0.03 μg/ml compound, 1 μg/ml LPS, 16 hours). Also, the inhibition at 0.3 µg/mL with nitric oxide (NO) (Mus musculus, RAW264.7, 0.3 μg/ml compound, read-out: Inhibition rate (%) of NO production) stood at 72.4%; in the assay on prostaglandin E2 (Mus musculus, RAW264.7, 0.3 μg/ml compound, read-out: Inhibition rate (%) of prostaglandin E2 production) it was 9.7%; with NF-κB (0.3 μg/ml compound, 1 μg/ml LPS, 16 hours) it was 33.1%. Besides, the inhibition at 3 µg/mL is 99.3% in the assay on nitric oxide (NO) (Mus musculus, RAW264.7, 3 μg/ml compound, read-out: Inhibition rate (%) of NO production); roughly 95% in the assay on prostaglandin E2 (Mus musculus, RAW264.7, 3 μg/ml compound, read-out: Inhibition rate (%) of prostaglandin E2 production); 96.4% in the assay with NF-κB (3 μg/ml compound, 1 μg/ml LPS, 16 hours). Further, the IC50 in the assay with nitric oxide (NO) (setting [1]) came out at 0.15 µM; in the assay on prostaglandin E2 (setting [1]), 2.63 µM; in the assay with NF-κB (RAW-NF-AP cells, LPS), 1.11 µM. Further, the “PGE2” value in the assay with prostaglandin E2 (0.03 μg/ml compound) came out at 10.7 ± 1.2 ng/mL; in the assay with prostaglandin E2 (0.3 μg/ml compound), 9.2 ± 0.2 ng/mL; in the assay with prostaglandin E2 (3 μg/ml compound) it was 1.8 ± 0.4 ng/mL. The “Inhibition rate (%) of prostaglandin E2 production” value in the assay on prostaglandin E2 (3 μg/ml compound) came out at 95.1%. In the assay on Bf1-1/A1 mRNA, the “Expression of Bf1-1/A1 mRNA induced by TNF-α” value was “inhibited”. Further, in the assay on cIAP-2, the “Expression of cIAP-2 protein induced by TNF-α” value was “inhibited”. In addition, the “Expression of Bcl-2” value with Bcl-2 is “not inhibited”. For the same molecule, the “Expression of Bax” value in the assay on Bax is “not inhibited”.

The term inhibition denotes the relative decrease from the control value, in per cent. What is called IC50 is the point on the concentration scale where inhibition reaches its midpoint.
